# From PubChem BioAssay AID721 (PCMD, 2007)
# Activity calls are given as the source filed them. How the calls were made is not given here.
# Target: Coagulation factor XI (Homo sapiens) (UniProt P03951)
# Assay: FXIa inhibitor IC50 values, dose response, biochemical, hits from single-well screen (AID 721)
# Conditions: purified factor XIa enzymatic assay, fluorescence
# Sequence of Coagulation factor XI (Homo sapiens) (P03951 19-387 limits assumed): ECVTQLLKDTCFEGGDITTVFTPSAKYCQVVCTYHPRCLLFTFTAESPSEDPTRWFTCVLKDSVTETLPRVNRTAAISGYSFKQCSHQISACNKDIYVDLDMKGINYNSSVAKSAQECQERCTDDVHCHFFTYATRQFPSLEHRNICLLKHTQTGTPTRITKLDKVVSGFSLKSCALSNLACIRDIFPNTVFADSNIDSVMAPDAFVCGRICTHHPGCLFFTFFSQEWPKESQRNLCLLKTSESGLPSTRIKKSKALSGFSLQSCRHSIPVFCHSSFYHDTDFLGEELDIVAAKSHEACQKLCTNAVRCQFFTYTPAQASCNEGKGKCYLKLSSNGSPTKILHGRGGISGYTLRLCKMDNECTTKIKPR
# Sequence of Coagulation factor XI (Homo sapiens) (P03951 388-625 limits assumed): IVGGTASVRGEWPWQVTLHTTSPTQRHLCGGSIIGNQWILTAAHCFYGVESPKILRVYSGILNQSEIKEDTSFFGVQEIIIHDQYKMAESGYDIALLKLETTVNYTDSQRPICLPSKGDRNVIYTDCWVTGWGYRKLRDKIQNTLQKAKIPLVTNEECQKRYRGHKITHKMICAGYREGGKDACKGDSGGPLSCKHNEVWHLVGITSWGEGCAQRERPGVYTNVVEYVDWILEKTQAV
row,Structure (SMILES),IC50
1,Cc1c(O)ccc(C(=O)CN2C(=O)c3ccccc3C2=O)c1O,> 50 µM (inactive)
2,CCCC1CCc2c(sc(N)c2C(N)=O)C1 (stereo not given),> 50 µM (inactive)
3,O=c1c(-c2cc3ccccc3o2)[n+]([O-])c2ccccc2n1OCc1ccccn1,> 50 µM (inactive)
4,N#Cc1ccc(NC(=O)COC(=O)CNC(=O)C2CCCCC2)cc1,> 50 µM (inactive)
5,COc1cc(OC)c2c(N)c(C#N)c(C(F)(F)C(F)(F)F)nc2c1,> 50 µM (inactive)
6,COC(=O)c1sc(NC(=O)CC(C)C)c(C(=O)OC)c1C,> 50 µM (inactive)
7,COC(=O)C(Cc1c[nH]c2ccccc12)NC(C)=O (stereo not given),6.69 µM
8,O=c1nc(-c2ccccc2)c2cc(Cl)ccc2[nH]1,> 50 µM (inactive)
9,Cc1cc(=O)[nH]c(-n2[nH]c(C)cc2=O)n1,> 50 µM (inactive)
10,COc1cc(/C=c2\sc3n(c2=O)CCCN=3)ccc1O,> 50 µM (inactive)
11,CCc1ccc(NC(=O)Cn2nc(C(F)(F)F)c3c2CCC3)cc1,> 50 µM (inactive)
12,Cc1cc(C)n2nc(C(=O)Nc3ccc4c(c3)OCO4)cc2n1,> 50 µM (inactive)
13,O=C(NC(C(=O)c1ccccc1)n1c(=O)cc[nH]c1=S)c1ccccc1 (stereo not given),> 50 µM (inactive)
14,CCC1(c2ccccc2)C(=O)N(C)C(=O)N(C)C1=O,> 50 µM (inactive)
15,N#Cc1cc2c(nc1SCC(=O)Nc1sc3c(c1C#N)CCC3)CCC2,> 50 µM (inactive)
16,O=C(c1ccc(F)cc1)N1CCN(C(=O)c2cccnc2)CC1,> 50 µM (inactive)
17,O=C(Oc1ccc2c(=O)c(Cl)coc2c1)c1cccnc1,> 50 µM (inactive)
18,CCn1c(SCC(=O)c2[nH]c(C)c(C(C)=O)c2C)nnc1-c1ccccc1,7.44 µM
19,Cn1c(SCC(=O)NC2CCCCC2)nnc1-c1cccc(N)c1,> 50 µM (inactive)
20,Cc1c(NC(=O)c2cc3ccccc3o2)c(=O)n(-c2ccccc2)n1C,> 50 µM (inactive)
21,CN(CCOc1ccccc1)c1ccc(S(=O)(=O)N2CCCCC2)cn1,> 50 µM (inactive)
22,COc1ccc2c(=O)cc(-c3ccccc3)n(C)c2c1,> 50 µM (inactive)
23,CCOc1cccc2cc(C(N)=O)c(=NCc3ccccc3)oc12,> 50 µM (inactive)
24,CCc1c(O)nc(SCC(=O)NC(C)(C)C)n(-c2ccccc2)c1=O,> 50 µM (inactive)
25,Cc1ccc(NC(=O)CCn2cccc2)cc1,> 50 µM (inactive)

row,Structure (SMILES),IC50
1,Cc1cnc(C(=O)OCC(=O)NCc2ccccc2)cn1,> 50 µM (inactive)
2,Cc1cc(NC(=O)COC(=O)c2c(C)nn(Cc3ccccc3)c2C)no1,> 50 µM (inactive)
3,CC(C)c1nc2ccc(NC(=O)C3CCCCC3)cc2[nH]1,> 50 µM (inactive)
4,CCc1ccc(CC2S/C(=C(\C#N)C(C)=O)NC2=O)cc1 (stereo not given),> 50 µM (inactive)
5,COc1ccc(OCCSc2ncn[nH]2)cc1,> 50 µM (inactive)
6,O=S(=O)(Cc1ccccc1)N1CCC(c2nc(-c3cccs3)no2)CC1,> 50 µM (inactive)
7,O=C(Nc1ccccc1C(=O)N1CCOCC1)c1ccc(F)cc1,21.4 µM
8,CCOc1ccc(S(=O)(=O)NCc2ccc(OC)cc2)c2cccnc12,> 50 µM (inactive)
9,O=C(c1cn(-c2ccccc2)nc1-c1ccncc1)n1nnc2ccccc21,0.707 µM
10,COC(=O)CSc1nnc(C)n1-c1cccc(OC)c1,2.36 µM
11,COCCN=C1Sc2nc3c(C)cccc3cc2CN1Cc1ccco1,0.745 µM
12,CCCN(CCC)C(C(=O)Nc1cccc(OC)c1)c1ccccc1 (stereo not given),> 50 µM (inactive)
13,CCCC(=O)n1nc(-c2ccccc2)nc1SC,> 50 µM (inactive)
14,O=C(CCSc1nnc2ccc3ccccc3n12)Nc1ccc(F)cc1,> 50 µM (inactive)
15,O=C(c1cccc2ccccc12)n1nnc2ccccc21,> 50 µM (inactive)
16,COc1cccc(C(=O)N(Cc2ccccc2)Cc2cc3cc4c(cc3[nH]c2=O)OCCO4)c1,10.4 µM
17,CCCc1nc2ccccc2c(=O)n1-c1ccc(OC)cc1,> 50 µM (inactive)
18,CCC1CC2CC(NC(C)=O)C1C2 (stereo not given),0.588 µM
19,Cc1ccccc1C(=O)N=c1sccn1C,> 50 µM (inactive)
20,COc1cc(OC)cc(-c2nnc(SCc3cccc(C(=O)O)c3)o2)c1,> 50 µM (inactive)
21,COc1ccc(CC(=O)NCc2ccc3c(c2)OCO3)cc1,> 50 µM (inactive)
22,COc1ccc(OCC(=O)Nc2cc(-c3nn(C)c(=O)c4ccccc34)ccc2OC)cc1,> 50 µM (inactive)
23,Cc1ccc(C(=O)n2nnc3ccccc32)cc1,2.39 µM
24,CCOC(=O)c1c(C)n(Cc2ccccc2)c2ccc(OCC(O)Cn3nc(C)cc3C)cc12 (stereo not given),> 50 µM (inactive)
25,CCN(CC)CCNC(=O)C(C)c1nn(C)c(=O)c2ccccc12 (stereo not given),> 50 µM (inactive)

row,Structure (SMILES),IC50
1,CCC(CO)NCc1ccc(OC2CCCC2)cc1 (stereo not given),> 50 µM (inactive)
2,CCOC(=O)c1c(C)nc2c(c1C)c(=O)oc1ccccc12,> 50 µM (inactive)
3,O=S(=O)(Nc1cccc2nsnc12)c1ccccc1,9.3 µM
4,CNCCCc1ccccc1,> 50 µM (inactive)
5,Cc1ccc(N(C(=O)c2ccccn2)C2(C(=O)NC3CCCC3)CCCCC2)cc1,> 50 µM (inactive)
6,Cc1cccc(NC(=O)c2snc3c(=O)[nH]cnc23)c1,> 50 µM (inactive)
7,CNC(=O)COC(=O)c1[nH]c(C)c(C(C)=O)c1C,> 50 µM (inactive)
8,C=CCn1c(=O)c2c(nc(Br)n2Cc2ccccc2Cl)n(C)c1=O,0.638 µM
9,CCn1nc(CC(=O)Nc2nnc(CC(=O)N3CCCC3)s2)c2ccccc2c1=O,> 50 µM (inactive)
10,COC(=O)c1[nH]c2ccc(Br)cc2c1NC(=O)CN1CCCc2ccccc21,> 50 µM (inactive)
11,O=C(CCCN1C(=O)c2ccccc2C1=O)NCC1CCCO1 (stereo not given),14.6 µM
12,COc1ccccc1-n1cnnc1SCC(=O)Nc1nc(C)c(Cl)cc1Cl,10.2 µM
13,OCCCn1c(-c2ccccc2)nc(=S)c2c1CCCC2,> 50 µM (inactive)
14,COc1ccc(Cn2nnnc2C(c2ccccc2Cl)N2CCC(C(N)=O)CC2)cc1 (stereo not given),> 50 µM (inactive)
15,COc1ccc(S(=O)(=O)N2CCC(C(=O)N3CCc4ccccc4C3)CC2)cc1Cl,6.26 µM
16,O=c1cccc2n1CC1CC2CN(S(=O)(=O)c2ccccc2)C1 (stereo not given),> 50 µM (inactive)
17,CCOC(=O)c1cc2c(ccn2C)n1CC(=O)N1CCC(C)CC1,0.744 µM
18,CCOc1cc(S(=O)(=O)N(Cc2ccccc2)Cc2ccccc2)c(OCC)cc1-n1cnnn1,> 50 µM (inactive)
19,Cc1ccc(NS(=O)(=O)c2ccc(OCC(=O)N3CCOCC3)cc2)cc1,> 50 µM (inactive)
20,CCOC(=O)N=S(=O)(Oc1ccc([N+](=O)[O-])cc1)c1ccccc1 (stereo not given),> 50 µM (inactive)
21,Cc1ccc(C(=O)n2nc(-c3cccnc3)nc2N)cc1,> 50 µM (inactive)
22,O=C(Oc1cccc(-n2cnnn2)c1)c1ccco1,4.06 µM
23,Cn1nnnc1SCC(=O)N(C1CCCCC1)C1CCCCC1,> 50 µM (inactive)
24,O=C(NCc1ccccc1)C1CCCN(S(=O)(=O)c2cccc3nonc23)C1 (stereo not given),> 50 µM (inactive)
25,Cc1ccc(-c2csc(N3CCC(NS(=O)(=O)c4ccc5c(c4)OCCO5)CC3)n2)cc1,> 50 µM (inactive)
